The record followed here is PMC11449324, “Functional comparison of human and murine equilibrative nucleobase transporter 1” (PLOS ONE, 2024).

The target in this assay is T1, endogenous ENBT1 expressed in L1210 cells (Mus musculus, UniProt A2AVZ9).
T1 construct: MOLT-4 cells express the SLC43A3 transcript and L1210 cells express the slc43a3 transcript; host or cells: L1210
T1 sequence (A2AVZ9 1-502): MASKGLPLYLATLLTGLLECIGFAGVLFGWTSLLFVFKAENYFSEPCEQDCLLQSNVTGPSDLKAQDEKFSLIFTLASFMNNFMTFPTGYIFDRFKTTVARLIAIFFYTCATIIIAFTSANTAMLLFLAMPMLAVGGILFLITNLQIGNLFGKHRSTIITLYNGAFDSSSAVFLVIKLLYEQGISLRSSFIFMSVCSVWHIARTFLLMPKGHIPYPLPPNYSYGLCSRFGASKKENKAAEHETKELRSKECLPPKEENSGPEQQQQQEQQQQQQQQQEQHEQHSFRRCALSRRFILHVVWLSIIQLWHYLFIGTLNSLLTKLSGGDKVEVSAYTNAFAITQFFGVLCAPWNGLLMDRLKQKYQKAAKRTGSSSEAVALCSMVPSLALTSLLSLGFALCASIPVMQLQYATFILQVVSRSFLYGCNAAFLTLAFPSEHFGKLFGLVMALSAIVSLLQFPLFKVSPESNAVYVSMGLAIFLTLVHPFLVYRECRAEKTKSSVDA
Nature of the assay: [3H]6-MP uptake in L1210 cells. It is filed as cell-based, murine. The conditions noted are these: 30 μM [3H]6-MP. The procedure:
Harvested cells were suspended in nominally sodium-free N-methyl-D-glucamine (NMG) buffer (140 mM NMG, 5 mM KCl, 4.2 mM KHCO3, 0.36 mM K2HPO4, 0.44 mM KH2PO4, 0.5 mM MgCl2, 1.3 mM CaCl2, 10 mM HEPES, pH 7.4), to minimize potential contribution of sodium-dependent concentrative nucleoside transporter-mediated uptake. Additionally, cells were incubated for 15 minutes at room temperature with 10 μM dipyridamole (DY), an equilibrative nucleoside transporter (ENT) inhibitor, to block equilibrative nucleoside transporter–mediated uptake. The substrate uptake assay was initiated by adding 250 μL cell suspension to 250 μL [^3H] labeled substrate, layered over 21:4 silicone:mineral oil (200 μL) in 1.5 mL microcentrifuge tubes (conducted at room temperature). […] This is the minimum incubation time achievable with this oil-stop technique, and it was found in previous studies that these short incubation times were necessary to assess the kinetics of this transporter. […] The resulting cell pellet was digested in 250 μL 1 M NaOH overnight (~16 hours), with 220 μL aliquots of digested cells assessed for radioactive content using standard liquid scintillation counting techniques in a Beckman Coulter LS6500 scintillation system (Brea, CA).
In transfected-HEK293 cell lines, total uptake was defined as uptake of radiolabeled substrate in cells overexpressing recombinant hENBT1 or mENBT1. […] ENBT1-mediated uptake was calculated as total uptake minus the non-mediated uptake.
Cell water volume (μL) was estimated by incubating cells with ^3H2O for 3 minutes, centrifuging the cells through the oil layer at ~10,000 g, assessing 100 μL of the supernatant for radioactive content, and then processing as described above. Total cellular water volume was determined from the ratio of the decays per minute of the cell pellet, to the decays per minute of the supernatant, allowing for inter-experimental normalization via calculation of picomoles of substrate accumulated per microliter of cell-associated water.

As for `Sc1ncnc2nc[nH]c12` [6-MP, 6-Mercaptopurine], the “k value of time-dependent uptake” value stood at 0.22 ± 0.05 s⁻¹ and the uptake plateau result is listed as “roughly 30 pmol/μL”. In the case of `Nc1ncnc2[nH]cnc12` [adenine, Adenine], the “effect on uptake of [3H]6-MP” value (5 mM adenine) is recorded as “significantly inhibited”.
